The numbers were not newly measured in publication PMC10116525 (ACS Omega, 2023), which cites them from elsewhere.

Where two headings read alike, the source gives them in different places.

The mark [1] stands for this setting: Lys^B29-lipidated insulin analogues.

On to degludec, for which the Duration of action under setting [1] is on record as not above 42 h. With detemir, under setting [1], the Duration of action entry was “up to 24 h”. In the case of insulin glargine, under “precipitation in the subcutaneous space”, the Duration of action entry was “up to 24 h”.
